Type in all cases: biochemical
Test [1] addresses T1, R140Q IDH2 (Homo sapiens, UniProt P48735, R140Q).
T1 construct: made in house; host or cells: Sf21 insect cells (cell pellets prepared at Evotec)
T1 sequence (P48735 40-452 R140Q): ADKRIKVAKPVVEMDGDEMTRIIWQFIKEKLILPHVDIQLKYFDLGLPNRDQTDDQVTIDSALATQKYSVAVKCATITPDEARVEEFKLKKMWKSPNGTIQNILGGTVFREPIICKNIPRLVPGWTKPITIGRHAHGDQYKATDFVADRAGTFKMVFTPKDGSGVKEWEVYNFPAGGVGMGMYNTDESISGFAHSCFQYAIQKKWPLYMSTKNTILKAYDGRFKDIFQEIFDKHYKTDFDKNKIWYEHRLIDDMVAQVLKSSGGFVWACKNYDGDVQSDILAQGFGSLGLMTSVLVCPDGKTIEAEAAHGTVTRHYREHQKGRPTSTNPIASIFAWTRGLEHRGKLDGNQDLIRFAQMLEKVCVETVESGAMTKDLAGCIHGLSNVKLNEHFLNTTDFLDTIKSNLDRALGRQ
The test is described as follows: Absorbance assay (NADPH consumption), substrate turnover in the absence of 2OG. The settings on record: no 2OG, 6.0 mM test compound, 0.03 μM R140Q IDH2, 50 μM NADPH, 2OG = 100. The procedure: (§1) Compounds were dispensed using a CyBio SDW-CW CyBi-Well Simultaneous Pipettor and assay started using a ThermoFisher Multidrop Combi reagent dispenser.
(§2) Reactions were performed as technical quadruplicates.

The target in test [2] is T2, R172K IDH2 (Homo sapiens, UniProt P48735, R172K).
T2 construct: made in house; host or cells: Sf21 insect cells (cell pellets prepared at Evotec)
T2 sequence (P48735 40-452 R172K): T1 sequence (P48735 40-452 R140Q) with Q101R, R133K
The test is described as above. The settings on record: no 2OG; 1.0 mM test compound, 0.03 μM R172K IDH2, 50 μM NADPH; 2OG = 100. The procedure: as §1, §2

Test [3] deals with T2, R172K IDH2. The test is described as follows: Absorbance assay, variant activity in the presence of equimolar 2OG (inhibition screen). The settings on record: 1.0 mM 2OG and 1.0 mM test compound, 0.03 μM R172K IDH2, 50 μM NADPH. A digest of the protocol: (§3)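 Quadruplicate technical repeats are run. Reaction start is by reagent dispenser.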
Test [4] concerns the target T3, WT IDH1 (Homo sapiens, UniProt O75874).
T3 construct: made in house; host or cells: Escherichia coli BL21(DE3) pLyS
The test is described as follows: Absorbance assay, WT activity in the presence of equimolar DL-isocitrate (inhibition). The note with it: […] isocitrate and […] test compound, 75 μM NADP+, 2.0 nM WT IDH1. A digest of the protocol:
as §3

Test [5] addresses T4, WT IDH2 (Homo sapiens, UniProt P48735).
T4 construct: made in house; host or cells: Sf21 insect cells (cell pellets prepared at Evotec)
T4 sequence (P48735 40-452): T1 sequence (P48735 40-452 R140Q) with Q101R
The test is described as above. The settings on record: […] isocitrate and […] test compound, 75 μM NADP+, 2.0 nM WT IDH2. A digest of the protocol:
as §3

Test [6] addresses T3, WT IDH1. The test is described as follows: Absorbance assay, substrate activity in the absence of DL-isocitrate. The note with it: no DL-isocitrate; […] test compound, 75 μM NADP+, 2.0 nM WT IDH1; compared to DL-isocitrate. The procedure:
as §1, §2

Test [7] concerns the target T4, WT IDH2. The test is described as above. The settings on record: no DL-isocitrate; […] test compound, 75 μM NADP+, 2.0 nM WT IDH2; compared to DL-isocitrate. The procedure: as §1, §2
Test [8] deals with T5, R132H IDH1 (Homo sapiens, UniProt O75874, R132H). The test is described as follows: Absorbance assay (NADPH consumption), substrate turnover in the absence of 2OG. Set-up: made in house; host or cells: Escherichia coli BL21(DE3) pLyS. The settings on record: no 2OG; […] test compound, 0.03 μM R132H IDH1, 50 μM NADPH; 2OG = 100. The procedure:
as §1, §2

In test [9] the target is T5, R132H IDH1. The test is described as follows: Absorbance assay, variant activity in the presence of equimolar 2OG (inhibition screen). Further details: made in house; host or cells: Escherichia coli BL21(DE3) pLyS. The note with it: […] 2OG and […] test compound, 0.03 μM R132H IDH1, 50 μM NADPH. A digest of the protocol:
as §3

Test [10] has as its target T1, R140Q IDH2. The test is described as above. The note with it: 6.0 mM 2OG and 6.0 mM test compound, 0.03 μM R140Q IDH2, 50 μM NADPH. Put shortly:
as §3

Where a chain is given by its changes, count along the chain named.

T5 sequence (O75874 whole entry R132H): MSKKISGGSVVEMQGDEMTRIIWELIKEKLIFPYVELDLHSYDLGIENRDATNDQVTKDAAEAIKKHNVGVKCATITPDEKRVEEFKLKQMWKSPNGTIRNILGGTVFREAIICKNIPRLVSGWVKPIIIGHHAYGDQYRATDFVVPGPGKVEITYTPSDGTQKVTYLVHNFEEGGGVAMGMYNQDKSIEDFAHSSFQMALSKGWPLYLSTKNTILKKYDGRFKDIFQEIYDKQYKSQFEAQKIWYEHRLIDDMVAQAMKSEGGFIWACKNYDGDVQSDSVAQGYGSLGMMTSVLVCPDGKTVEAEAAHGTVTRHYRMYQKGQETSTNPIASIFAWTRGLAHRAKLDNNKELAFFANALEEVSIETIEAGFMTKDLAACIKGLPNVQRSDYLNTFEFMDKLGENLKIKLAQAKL
T3 sequence (O75874 whole entry): as the sequence (O75874 whole entry R132H) above, with H132R counted along it

`O=C(O)C(=O)C(=O)O` [ketomalonic acid]: the “activity [%] (%-substrate conversion after 20 min incubation)” value (“activity [%]” below) on R140Q IDH2 [1] is given as below 10%; on R172K IDH2 [2], below 10%; on R172K IDH2 [3], 85 ± 12%; at WT IDH1 [4], 102 ± 4%; at WT IDH2 [5], 100 ± 2%; on WT IDH1 [6], below 10%. In addition, the “activity [%]” value at WT IDH2 [7] is below 10%; on R132H IDH1 [8], below 10%; at R132H IDH1 [9], 79 ± 1%.
With `NC(=O)C(=O)O` [oxamic acid], the “activity [%]” value on R140Q IDH2 [1] was below 10%; at R172K IDH2 [2], below 10%; on R140Q IDH2 [10], 117 ± 3%; on R172K IDH2 [3], 102 ± 7%; at WT IDH1 [4] it was 105 ± 2%; at WT IDH2 [5], 100 ± 1%. The “activity [%]” value was below 10% at WT IDH1 [6], below 10% on WT IDH2 [7], below 10% on R132H IDH1 [8] and 99 ± 2% on R132H IDH1 [9].
Consider `O=C(O)CC(S)C(=O)O` (stereo not shown) [2-mercaptosuccinic acid], for which the “activity [%]” value is given as below 10% on R140Q IDH2 [1]; below 10% at R172K IDH2 [2]; 91 ± 5% at R140Q IDH2 [10]; 99 ± 4% at R172K IDH2 [3]; 109 ± 4% on WT IDH1 [4]; 100 ± 1% at WT IDH2 [5]. The “activity [%]” value at WT IDH1 [6] was below 10%; on WT IDH2 [7], below 10%; on R132H IDH1 [8], below 10%; on R132H IDH1 [9], 104 ± 4%.
Take `O=C(O)CCC(=O)O` [succinic acid]: the “activity [%]” value on R140Q IDH2 [1] is on record as below 10%; on R172K IDH2 [2] it was below 10%; at R140Q IDH2 [10], 124 ± 11%; at R172K IDH2 [3], 89 ± 2%; at WT IDH1 [4] it was 97 ± 2%; on WT IDH2 [5], 97 ± 3%. In addition, the “activity [%]” value is on record as below 10% at WT IDH1 [6], below 10% at WT IDH2 [7], below 10% on R132H IDH1 [8] and 100 ± 4% at R132H IDH1 [9].
`O=C(O)/C=C/C(=O)O` [fumaric acid]: the “activity [%]” value is on record as below 10% at R140Q IDH2 [1]; below 10% at R172K IDH2 [2]; 112 ± 13% on R140Q IDH2 [10]; 87 ± 6% at R172K IDH2 [3]; 98 ± 1% on WT IDH1 [4]; 97 ± 1% at WT IDH2 [5]. Also, the “activity [%]” value at WT IDH1 [6] is below 10%; on WT IDH2 [7], below 10%; on R132H IDH1 [8] it was below 10%; at R132H IDH1 [9], 86 ± 3%.
Take `COC(=O)CCC(=O)C(=O)OC` [dimethyl 2-oxoglutaric acid]: the “activity [%]” value on R140Q IDH2 [1] is listed as below 10%; on R172K IDH2 [2], below 10%; at R140Q IDH2 [10], 124 ± 12%; on R172K IDH2 [3] it was 100 ± 9%; at WT IDH1 [4], 98 ± 1%; on WT IDH2 [5] it was 97 ± 2%. Also, the “activity [%]” value at R132H IDH1 [8] is on record as below 10%; at R132H IDH1 [9] it was 95 ± 3%.
Take `CC[C@H](C)C(=O)C(=O)O` [α-ketoisoleucine]: the “activity [%]” value on R140Q IDH2 [1] is below 10%; on R172K IDH2 [2] it was below 10%; at R140Q IDH2 [10], 102 ± 5%; on R172K IDH2 [3], 94 ± 5%; on WT IDH1 [4], 105 ± 4%; at WT IDH2 [5] it was 98 ± 3%. Further, the “activity [%]” value was below 10% at R132H IDH1 [8] and 104 ± 2% on R132H IDH1 [9].
For the compound `N[C@@H](CCCC(=O)O)C(=O)O` [L-2-aminoadipic acid], the “activity [%]” value is reported as below 10% at R140Q IDH2 [1]; below 10% on R172K IDH2 [2]; 82 ± 4% at R140Q IDH2 [10]; 104 ± 1% at R172K IDH2 [3]; 108 ± 4% at WT IDH1 [4]; 101 ± 5% at WT IDH2 [5]. The “activity [%]” value on R132H IDH1 [8] is recorded as below 10%; on R132H IDH1 [9], 104 ± 7%.
Turning to `O=C(O)C(=O)CC(O)C(=O)O` (racemic) [DL-4-hydroxy-2-oxoglutaric acid], the “activity [%]” value on R140Q IDH2 [1] is 27 ± 3%; on R140Q IDH2 [1] (listed as DL-4-hydroxy-2OG), around 20%; at R172K IDH2 [2], below 10%; on R140Q IDH2 [10], 124 ± 8%; at R172K IDH2 [3], 98 ± 3%; at WT IDH1 [4], 89 ± 1%. For the same compound, the “activity [%]” value is 87 ± 1% on WT IDH2 [5], below 10% on R132H IDH1 [8] and 82 ± 5% on R132H IDH1 [9].

The record behind these values is PMC9939733 (The Journal of Biological Chemistry, 2023).
